Experimental data published in paper PMC12654176 (Microorganisms, 2025).

System: H10NX AIVs NA activity
Assay type: biochemical

With `CC(=O)N[C@H]1[C@H]([C@H](O)[C@H](O)CO)OC(C(=O)O)=C[C@@H]1N=C(N)N` [Zanamivir, zanamivir] the “susceptibility of H10NX isolates to the drug (phenotypic assay)” value was “sensitive” and the IC50 (read-out: mean IC50 values, range over the H10NX isolates tested) was 0.7 to 1.3 nM.
